Experimental data taken from patent US20230146455A1, “TREATMENT OF INFLAMMATORY DISEASES WITH PEPTIDES AND PHARMACEUTICAL COMPOSITIONS” (Yuyu Pharma, Inc., priority 2020, published 2023).
Values joined by “and” are separate entries in the source; they are usually repeats but may differ in a detail not shown here. Equal entries are not always repeated. Where a SMILES comes first, the peptide text is derived from it. [ ]: non-standard residue; d: D form. Hyp = O=C(O)[C@@H]1C[C@@H](O)CN1

System: human PBMCs
Test: PBMC cell counts (total, live, viability; trypan blue, Countess) with and without LPS and test articles (Example 9)
Type: cell-based
Experimental: Treatment Human PBMCs were pretreated with YY-101, YDE-011 and YDE-043 or reference compound; Xiidra® at various concentration (ranging from 1 nM to 100 uM) for 2 h before stimulation. An equal volume of 0.5% DMSO was used as a vehicle control. Then, the cells were treated with LPS at 5 ug/ml. The supernatants from treated cells were harvested at 24 h and placed in a 96 well for Luminex cytokine & chemokine profiling using a Luminex 200 multiplex assay (Luminex; R&D system, USA).
The main study arm with triplicate wells per group in a 24-well plate: • 1. Blank • 2. PBMC: 0.5% DMSO • 3. PBMC+LPS (5 ug/ml) • 4. PBMC+YY-101 100 uM • 5. PBMC+YY-101 10 uM • 6. PBMC+YY-101 1 uM • 7. PBMC+YY-101 0.1 uM • 8. PBMC+YY-101 0.01 uM • 9. PBMC+LPS (5 ug/ml)+Xiidra®100 uM • 10. PBMC+LPS (5 ug/ml)+Xiidra® 10 uM • 11. PBMC+LPS (5 ug/ml)+Xiidra® 1 uM • 12. PBMC+LPS (5 ug/ml)+Xiidra®0.1 uM • 13. PBMC+LPS (5 ug/ml)+Xiidra®0.01 uM • 14. PBMC+LPS (5 ug/ml)+Xiidra®0.001 uM • 15. PBMC+LPS (5 ug/ml)+YY-101 100 uM • 16. PBMC+LPS (5 ug/ml)+YY-101 10 uM • 17. PBMC+LPS (5 ug/ml)+YY-101 1 uM • 18. PBMC+LPS (5 ug/ml)+YY-101 0.1 uM • 19. PBMC+LPS (5 ug/ml)+YY-101 0.01 uM • 20. PBMC+LPS (5 ug/ml)+YY-101 0.001 uM • 21. PBMC+LPS (5 ug/ml)+YDE-011 100 uM • 22. PBMC+LPS (5 ug/ml)+YDE-011 10 uM • 23. PBMC+LPS (5 ug/ml)+YDE-011 1 uM • 24. PBMC+LPS (5 ug/ml)+YDE-011 0.1 uM • 25. PBMC+LPS (5 ug/ml)+YDE-011 0.01 uM • 26. PBMC+LPS (5 ug/ml)+YDE-011 0.001 uM • 27. PBMC+LPS (5 ug/ml)+YDE-043 100 uM • 28. PBMC+LPS (5 ug/ml)+YDE-043 10 uM • 29. PBMC+LPS (5 ug/ml)+YDE-043 1 uM • 30. PBMC+LPS (5 ug/ml)+YDE-043 0.1 uM • 31. PBMC+LPS (5 ug/ml)+YDE-043 0.01 uM • 32. PBMC+LPS (5 ug/ml)+YDE-043 0.001 uM
The number of PBMCs was measured after 24 hr of treatment. The culture both and trypan blue were diluted 1:1 and 10 ul was added to Countess cell counting chamber (Thermo fisher, USA). The number of PBMCs was measured using a Countess automated cell counter (Thermo fisher, USA).

[1] = PBMC + LPS(5 ug/ml) + test article 100 uM, Mean
[2] = PBMC + LPS(5 ug/ml) + test article 100 uM, single replicates
[3] = PBMC + LPS(5 ug/ml), test article 0.001 uM, Mean
[4] = PBMC + LPS(5 ug/ml), test article 0.001 uM, single replicates
[5] = PBMC + LPS(5 ug/ml), test article 0.01 uM, Mean
[6] = PBMC + LPS(5 ug/ml), test article 0.01 uM, single replicates
[7] = PBMC + LPS(5 ug/ml), test article 0.1 uM, Mean
[8] = PBMC + LPS(5 ug/ml), test article 0.1 uM, single replicates
[9] = PBMC + LPS(5 ug/ml), test article 1 uM, Mean
[10] = PBMC + LPS(5 ug/ml), test article 1 uM, single replicates
[11] = PBMC + LPS(5 ug/ml), test article 10 uM, Mean
[12] = PBMC + LPS(5 ug/ml), test article 10 uM, single replicates
[13] = PBMC + LPS(5 ug/ml), test article 100 uM, Mean
[14] = PBMC + LPS(5 ug/ml), test article 100 uM, single replicates

Structure (SMILES): CC(C)C[C@H](NC(=O)[C@H](CCC(N)=O)NC(=O)CNC(=O)[C@@H]1C[C@@H](O)CN1)C(=O)NCC(=O)O [YDE-043] (H-[Hyp]GQLG-OH; N-terminus and C-terminus assumed)
- Live cell (PBMC + LPS(5 ug/ml) + test article 10 uM, single replicates (1st, 2nd, 3rd)): 5.2 10^5/ml and 5.4 10^5/ml and 5.6 10^5/ml
- Live cell [1]: 6.3 10^5/ml
- Live cell (10^5/ml) [1]: 6.3 10^5/ml
- Live cell, Mean [1]: 6.3 10^5/ml
- Live cell (PBMC + LPS(5 ug/ml) + test article 100 uM, individual replicates): 6.2 10^5/ml and 6.4 10^5/ml
- Live cell (PBMC + LPS(5 ug/ml) + test article 100 uM, individual replicates (1st, 2nd, 3rd)): 6.2 10^5/ml and 6.4 10^5/ml
- Live cell [2]: 6.2 10^5/ml and 6.4 10^5/ml
- Live cell (10^5/ml) [2]: 6.2 10^5/ml and 6.4 10^5/ml
- Live cell (PBMC + LPS(5 ug/ml) + test article 100 uM, single replicates (1st, 2nd, 3rd)): 6.2 10^5/ml and 6.4 10^5/ml
- Live cell (PBMC + LPS(5 ug/ml), 0.001 uM, Mean): 5.0 10^5/ml
- Live cell (PBMC + LPS(5 ug/ml), 0.001 uM, single replicates): 4.4 10^5/ml and 6.0 10^5/ml and 4.6 10^5/ml
- Live cell (PBMC + LPS(5 ug/ml), 0.01 uM, Mean): 5.4 10^5/ml
- Live cell (PBMC + LPS(5 ug/ml), 0.01 uM, single replicates): 4.5 10^5/ml and 6.6 10^5/ml and 5.0 10^5/ml
- Live cell (PBMC + LPS(5 ug/ml), 0.1 uM, Mean): 5.4 10^5/ml
- Live cell (PBMC + LPS(5 ug/ml), 0.1 uM, single replicates): 5.0 10^5/ml and 5.6 10^5/ml (2×)
- Live cell (PBMC + LPS(5 ug/ml), 1 uM, Mean): 5.3 10^5/ml
- Live cell (PBMC + LPS(5 ug/ml), 1 uM, single replicates): 5.8 10^5/ml and 4.8 10^5/ml and 5.3 10^5/ml
- Live cell (PBMC + LPS(5 ug/ml), 10 uM, Mean): 5.4 10^5/ml
- Live cell (PBMC + LPS(5 ug/ml), 10 uM, single replicates): 5.2 10^5/ml and 5.4 10^5/ml and 5.6 10^5/ml
- Live cell (PBMC + LPS(5 ug/ml), 100 uM, Mean): 6.3 10^5/ml
- Live cell (PBMC + LPS(5 ug/ml), 100 uM, single replicates): 6.2 10^5/ml and 6.4 10^5/ml
- Live cell [3]: 5.0 10^5/ml
- Total cell count [3]: 6.3 10^5/ml
- Live cell [4]: 4.4 10^5/ml and 6.0 10^5/ml and 4.6 10^5/ml
- Total cell count [4]: 5.6 10^5/ml (2×) and 7.8 10^5/ml
- Viability [4]: 79.0% and 77.0% and 82.0%
- Live cell [5]: 5.4 10^5/ml
- Total cell count [5]: 6.9 10^5/ml
- Live cell [6]: 4.5 10^5/ml and 6.6 10^5/ml and 5.0 10^5/ml
- Total cell count [6]: 6.2 10^5/ml and 7.3 10^5/ml and 7.2 10^5/ml
- Live cell [7]: 5.4 10^5/ml
- Total cell count [7]: 6.6 10^5/ml
- Live cell [8]: 5.0 10^5/ml and 5.6 10^5/ml
- Total cell count [8]: 6.8 10^5/ml and 6.4 10^5/ml and 6.5 10^5/ml
- Viability [8]: 74.0% and 87.0% and 85.0%
- Live cell [9]: 5.3 10^5/ml
- Total cell count [9]: 6.8 10^5/ml
- Live cell [10]: 5.8 10^5/ml and 4.8 10^5/ml and 5.3 10^5/ml
- Total cell count [10]: 6.9 10^5/ml and 5.7 10^5/ml and 7.8 10^5/ml
- Viability [10]: 83.0% (2×) and 68.0%
- Live cell [11]: 5.4 10^5/ml
- Total cell count [11]: 6.4 10^5/ml
- Live cell [12]: 5.2 10^5/ml and 5.4 10^5/ml and 5.6 10^5/ml
- Total cell count [12]: 6.4 10^5/ml and 6.7 10^5/ml and 6.2 10^5/ml
- Viability [12]: 80.0% (2×) and 90.0%
- Live cell [13]: 6.3 10^5/ml
- Total cell count [13]: 7.6 10^5/ml
- Live cell [14]: 6.2 10^5/ml and 6.4 10^5/ml
- Total cell count [14]: 7.0 10^5/ml and 8.1 10^5/ml
- Viability [14]: 89.0% and 80.0%
- which treatments consistently affected the total and live number of PBMCs or the percent viability (in words) (up to 100 μM, 24-hour treatment): none of
